Assay results reported in PubChem BioAssay (NCI).
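96-well plates; 48 h exposure; 5 concentrations. Endpoints by linear interpolation between flanking doses. Not reached: highest tested concentration assigned. The concentration for full growth arrest is given as TGI.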

Key:
Assay in all cases: growth of human tumour cells (NCI), 48 h
[1] = test system: NCI-H460 lung
[2] = test system: RPMI-8226 leukemia
[3] = test system: EKVX NSCLC
[4] = test system: DMS 273 small cell lung
[5] = test system: K-562 leukemia
[6] = test system: M14 melanoma
[7] = test system: SF-295 CNS
[8] = test system: OVCAR-3 ovarian
[9] = test system: HL-60(TB) leukemia
[10] = test system: SK-MEL-5 melanoma
[11] = test system: HCT-15 colon
[12] = test system: RXF 393 renal
[13] = test system: OVCAR-4 ovarian
[14] = test system: SF-268 CNS
[15] = test system: COLO 205 colon
[16] = test system: HS 578T breast
[17] = test system: HOP-92 NSCLC
[18] = test system: DU-145 prostate
[19] = test system: HCC-2998 colon
[20] = test system: BT-549 breast

Row | Compound | TGI [1] | TGI [2] | TGI [3] | TGI [4] | TGI [5] | TGI [6] | TGI [7] | TGI [8] | TGI [9] | TGI [10] | TGI [11] | TGI [12] | TGI [13] | TGI [14] | TGI [15] | TGI [16] | TGI [17] | TGI [18] | TGI [19] | TGI [20]
1 | BrC1=CCC23CC=C(Br)[C@H]4CC2(COC3)C[C@@H]1O4 (some centres not stated) | > 100 µM | > 100 µM | > 100 µM | > 100 µM | 89 µM | > 100 µM | > 100 µM | > 100 µM | 38.1 µM | > 100 µM | > 100 µM | 93.5 µM | > 100 µM | 30.9 µM | > 100 µM |  |  |  |  | 
2 | CC(=O)N1C(OC(C)C)CC(C)N1c1ccccc1 (configuration not stated) | > 10 µM | > 10 µM | > 10 µM |  | > 10 µM | > 10 µM | > 10 µM | > 10 µM | > 10 µM | > 10 µM | > 10 µM | > 10 µM | > 10 µM | > 10 µM | > 10 µM | > 10 µM | > 10 µM | > 10 µM | > 10 µM | > 10 µM
3 | O=c1c2ccccc2nc(-c2cc3c(cc2Cl)Sc2nccn2S3(=O)=O)n1-c1ccccc1 | > 100 µM | 48.5 µM | 48 µM |  | > 100 µM | > 100 µM | 52.9 µM | 29.4 µM | 15.5 µM | > 100 µM | 33 µM | 36 µM | 44.8 µM | 22.2 µM | > 100 µM | 42.7 µM | 58.5 µM | 51.8 µM | 31 µM | > 100 µM
4 | c1ccc(-c2nnc(-c3ccccn3)c3c2C[C@@H]2C[C@@H]4Cc5c(-c6ccccn6)nnc(-c6ccccn6)c5[C@@H]4[C@H]32)nc1 | 88 µM | > 100 µM | 36.8 µM |  | > 100 µM | 43.6 µM | > 100 µM | > 100 µM | 58.8 µM | > 100 µM | > 100 µM | > 100 µM | > 100 µM | > 100 µM | > 100 µM | > 100 µM | > 100 µM | > 100 µM | > 100 µM | > 100 µM
5 | CC1CCC2(O)C3(C)CC4(O)OC2(C1O)C1(O)C3(O)C(OC(=O)c2ccc[nH]2)C(O)(C(C)C)C41C (configuration not stated) | > 100 µM | > 100 µM | > 100 µM |  | > 100 µM | > 100 µM | > 100 µM | > 100 µM | > 100 µM | > 100 µM | > 100 µM | > 100 µM | > 100 µM | > 31.6 µM | > 100 µM | > 100 µM | > 100 µM | > 100 µM | > 100 µM | > 100 µM
6 | O=[N+]([O-])c1c(F)c(F)c2c(c1F)Nc1ccccc1S2 | 41.8 µM | 27.2 µM | 16 µM |  | > 100 µM | 10.4 µM | 34.2 µM | 4.1 µM | 16.1 µM | 23.8 µM | 12.6 µM | 8.88 µM | 6.59 µM | 6 µM | 27.3 µM | 28.6 µM | 31 µM | 13.3 µM | 6.96 µM | 25.8 µM
7 | CC[C@H](CCCC[C@H]1CC[C@@H]2CC(=O)C[C@H]12)OC | > 100 µM | > 100 µM | > 100 µM |  | 55.2 µM | > 100 µM | > 100 µM | > 100 µM | 67.8 µM | 93 µM | > 100 µM | > 100 µM | > 100 µM | > 100 µM | > 100 µM | > 100 µM | > 100 µM | > 100 µM | > 100 µM | > 100 µM
8 | CC1(C)C2C=C(CCN3CCOCC3)CC1C2 (configuration not stated) | > 100 µM | > 100 µM | > 100 µM |  | > 100 µM | > 100 µM | > 100 µM | > 100 µM | > 100 µM | > 100 µM | > 100 µM | > 100 µM | > 100 µM | > 100 µM | > 100 µM | > 100 µM | > 100 µM | > 100 µM | > 100 µM | > 100 µM
9 | O=c1cc(-c2ccccc2)c2ccccc2[nH]1 | > 100 µM | > 100 µM |  | > 100 µM | > 100 µM | > 100 µM | > 100 µM |  | > 100 µM | 93.2 µM | > 100 µM | > 100 µM | > 100 µM | > 100 µM | > 100 µM |  | 48.1 µM |  |  | 
